Results reported in patent publication US20070155795A1, “MUSCARINIC AGONISTS” (ACADIA Pharmaceuticals Inc., priority 2000, published 2007).

Assays:
[1] = biological target: T1, m1 muscarinic receptor subtype (Homo sapiens, UniProt P11229); test: R-SAT assay, muscarinic receptor subtype m1; type: cell-based; conditions: transfected NIH-3T3 cells, 5 days; for m1 % Eff: relative to maximum response to carbachol
T1 construct: expressed in transfected cells; host or cells: NIH-3T3 (ATCC CRL 1658)
T1 sequence (P11229 1-460): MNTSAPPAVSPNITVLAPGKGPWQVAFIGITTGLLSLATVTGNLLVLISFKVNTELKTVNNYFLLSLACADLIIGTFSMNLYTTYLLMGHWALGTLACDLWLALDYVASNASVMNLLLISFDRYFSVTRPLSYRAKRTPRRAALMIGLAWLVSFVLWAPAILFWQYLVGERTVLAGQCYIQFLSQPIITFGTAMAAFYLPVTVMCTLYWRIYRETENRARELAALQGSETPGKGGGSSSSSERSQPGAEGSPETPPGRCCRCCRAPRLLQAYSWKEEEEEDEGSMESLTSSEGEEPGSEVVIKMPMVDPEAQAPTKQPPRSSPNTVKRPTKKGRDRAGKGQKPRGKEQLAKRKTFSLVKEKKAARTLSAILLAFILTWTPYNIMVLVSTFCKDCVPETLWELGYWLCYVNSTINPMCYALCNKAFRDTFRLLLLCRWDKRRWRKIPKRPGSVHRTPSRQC
Procedure: (§1) Transfected cells were grown in the presence of between 1 nM and 40 μM of the test compound for 5 days. On day 5, the cells were lysed using 0.5% Nonidet-P and β-galactosidase expression was quantified using the chromogenic substrate o-nitrophenyl-β-D-galactoside (ONGP).
(§2) Data were normalized relative to the maximum response of the cells to the muscarinic agonist carbachol, and the following equation was fitted to the data: • response=minimum+(maximum−minimum)/(1+(EC50/[ligand])) • Where [ligand]=ligand concentration. • % Efficacy was defined as: • (maximum−minimum)/(maximum response of cells to carbachol). • pEC50=−log (EC50). • Where data gave a bell-shaped curve, “maximum” was defined as the highest observed response.

[2] = biological target: T2, m2 muscarinic receptor subtype (Homo sapiens, UniProt P08172); test: R-SAT assay, muscarinic receptor subtype m2; type: cell-based; conditions: transfected NIH-3T3 cells, 5 days, relative to maximum response to carbachol
T2 construct: expressed in transfected cells; host or cells: NIH-3T3 (ATCC CRL 1658)
T2 sequence (P08172 1-466): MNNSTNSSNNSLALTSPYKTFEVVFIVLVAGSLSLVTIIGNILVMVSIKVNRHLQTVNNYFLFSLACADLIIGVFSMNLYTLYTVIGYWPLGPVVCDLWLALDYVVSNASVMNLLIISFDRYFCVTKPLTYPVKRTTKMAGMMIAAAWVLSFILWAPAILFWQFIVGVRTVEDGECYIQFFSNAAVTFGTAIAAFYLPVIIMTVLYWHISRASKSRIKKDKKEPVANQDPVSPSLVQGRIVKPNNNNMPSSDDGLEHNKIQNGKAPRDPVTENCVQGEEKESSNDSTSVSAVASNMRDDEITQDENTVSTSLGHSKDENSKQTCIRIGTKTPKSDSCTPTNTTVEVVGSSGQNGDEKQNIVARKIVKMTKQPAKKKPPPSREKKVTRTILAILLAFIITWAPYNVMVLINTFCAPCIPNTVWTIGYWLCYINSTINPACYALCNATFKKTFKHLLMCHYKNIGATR
Procedure: (§3) Screening Of Test Compounds In An Assay Using Muscarinic Receptor Subtypes m1, m2, m3, m4 and m5. The m1, m2, m3, m4 and m5 muscarinic receptor subtypes were cloned substantially as described by Bonner et al., Science […] and Bonner et al., Neuron 1:403 (1988). R-SAT assays were carried out substantially as described in U.S. Pat. Nos. 5,707,798, 5,912,132, and 5,955,281, and by Braüner-Osborne & Brann, Eur. J. Pharmacol. 295:93 (1995). NIH-3T3 cells (available from the American Type Culture Collection as ATCC CRL 1658) were transfected with plasmid DNA encoding the m1, m2, m3, m4 or m5 receptors and plasmid DNA encoding β-galactosidase. Transfected cells were grown in the presence of between 1 nM and 40 μM of the test compound for 5 days. On day 5, the cells were lysed using 0.5% Nonidet-P and β-galactosidase expression was quantified using the chromogenic substrate o-nitrophenyl-β-D-galactoside (ONGP).
as §2

[3] = biological target: T3, m3 muscarinic receptor subtype (Homo sapiens, UniProt P20309); test: R-SAT assay, muscarinic receptor subtype m3; type: cell-based; conditions: transfected NIH-3T3 cells, 5 days, relative to maximum response to carbachol
T3 construct: expressed in transfected cells; host or cells: NIH-3T3 (ATCC CRL 1658)
T3 sequence (P20309 whole entry): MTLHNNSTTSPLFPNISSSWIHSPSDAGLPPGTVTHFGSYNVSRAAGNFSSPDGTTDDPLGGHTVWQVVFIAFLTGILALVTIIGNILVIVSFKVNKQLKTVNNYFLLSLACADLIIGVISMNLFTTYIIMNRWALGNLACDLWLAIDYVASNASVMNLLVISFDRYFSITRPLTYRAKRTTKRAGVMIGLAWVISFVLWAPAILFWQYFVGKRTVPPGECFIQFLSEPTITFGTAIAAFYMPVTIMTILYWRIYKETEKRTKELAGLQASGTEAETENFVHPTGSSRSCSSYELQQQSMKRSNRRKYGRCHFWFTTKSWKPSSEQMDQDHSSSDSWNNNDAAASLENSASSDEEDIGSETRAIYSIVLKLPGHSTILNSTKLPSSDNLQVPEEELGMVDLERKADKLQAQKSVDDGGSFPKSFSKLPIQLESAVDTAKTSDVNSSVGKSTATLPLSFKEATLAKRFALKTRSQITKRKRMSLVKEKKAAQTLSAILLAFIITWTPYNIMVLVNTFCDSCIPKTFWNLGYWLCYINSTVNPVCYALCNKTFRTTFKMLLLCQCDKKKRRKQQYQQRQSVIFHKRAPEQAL
Procedure: as §3, §2

[4] = biological target: T4, m4 muscarinic receptor subtype (Homo sapiens, UniProt P08173); test: R-SAT assay, muscarinic receptor subtype m4; type: cell-based; conditions: transfected NIH-3T3 cells, 5 days; for m4 % Eff: relative to maximum response to carbachol
T4 construct: expressed in transfected cells; host or cells: NIH-3T3 (ATCC CRL 1658)
T4 sequence (P08173 1-479): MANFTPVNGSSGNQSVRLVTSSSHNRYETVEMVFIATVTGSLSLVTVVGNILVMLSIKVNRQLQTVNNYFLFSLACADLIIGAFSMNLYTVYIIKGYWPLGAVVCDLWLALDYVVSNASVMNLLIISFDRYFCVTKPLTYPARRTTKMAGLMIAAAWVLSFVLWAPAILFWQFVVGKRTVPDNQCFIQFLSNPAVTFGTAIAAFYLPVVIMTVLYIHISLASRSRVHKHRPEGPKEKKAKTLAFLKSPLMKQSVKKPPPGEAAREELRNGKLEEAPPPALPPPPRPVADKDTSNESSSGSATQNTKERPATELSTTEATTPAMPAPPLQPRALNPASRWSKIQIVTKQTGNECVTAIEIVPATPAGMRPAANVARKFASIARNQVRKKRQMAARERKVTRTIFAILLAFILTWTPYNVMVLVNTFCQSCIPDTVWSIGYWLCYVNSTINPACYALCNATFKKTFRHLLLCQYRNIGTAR
Procedure: as §1, §2

[5] = biological target: T5, m5 muscarinic receptor subtype (Homo sapiens, UniProt P08912); test: R-SAT assay, muscarinic receptor subtype m5; type: cell-based; conditions: transfected NIH-3T3 cells, 5 days; for m5 % Eff: relative to maximum response to carbachol
T5 construct: expressed in transfected cells; host or cells: NIH-3T3 (ATCC CRL 1658)
T5 sequence (P08912 1-532): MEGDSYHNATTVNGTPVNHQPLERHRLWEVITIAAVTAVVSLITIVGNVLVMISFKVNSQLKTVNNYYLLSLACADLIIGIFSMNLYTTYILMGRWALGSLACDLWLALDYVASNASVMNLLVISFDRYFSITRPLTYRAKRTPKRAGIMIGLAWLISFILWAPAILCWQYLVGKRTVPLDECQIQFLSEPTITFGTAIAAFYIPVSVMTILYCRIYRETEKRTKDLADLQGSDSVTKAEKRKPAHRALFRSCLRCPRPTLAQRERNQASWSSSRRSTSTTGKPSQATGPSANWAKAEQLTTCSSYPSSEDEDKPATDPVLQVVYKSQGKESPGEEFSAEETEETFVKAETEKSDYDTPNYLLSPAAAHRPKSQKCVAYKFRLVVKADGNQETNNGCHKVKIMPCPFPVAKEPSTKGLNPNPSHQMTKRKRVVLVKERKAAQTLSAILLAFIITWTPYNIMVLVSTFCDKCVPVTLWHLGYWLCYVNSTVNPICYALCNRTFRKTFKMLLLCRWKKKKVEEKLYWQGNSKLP
Procedure: as §3, §2

Glaucomatous Monkeys = test: Intraocular pressure in glaucomatous monkeys (laser-induced unilateral ocular hypertension); type: in vivo, cynomolgus monkeys (Macacca fascicularis); conditions: conscious monkeys
Procedure: Effects of Compound 35AKU-21 on Intaocular Pressure in Primates. All studies were conducted in fully conscious female cynomolgus monkeys (Macacca fascicularis) weighing 3-4 kg. Unilateral ocular hypertension was produced by argon laser photocoagulation to the mid-trabecular meshwork (Sawyer & McGuigan, Invest. Ophthalmol. Vis. Sci. 29:81(1988)).
Animals were trained to allow measuring intraocular pressure (IOP) with a model 30 Classic pneumatonometer (Mentor O&O Co.). Throughout each study, monkeys sat in specially designed chairs (Primate Products, San Francisco) and fed fruits and juices as needed.
The drug was administered topically. The drug was formulated in an aqueous solution such as distilled water, saline or citrate buffer at a pH 5-7 and applied unilaterally as a 35 μL drop; the contralateral eye received an equal volume of saline (or vehicle). Two baseline measurements were made prior to administration of the drug, followed by periodic measurements up to 6 hours post drug administration.

[6] = in vivo; cited from earlier work

| SMILES | m1 pEC50 [1] | m1 % Eff [1] | m2 % Eff [2] | m3 % Eff [3] | m4 pEC50 [4] | m4 % Eff [4] | m5 % Eff [5] | % IOP Change (Glaucomatous Monkeys; 1 HR after topical 35 μL drop) | % IOP Change (Glaucomatous Monkeys; 2 HR after topical 35 μL drop) | % IOP Change (Glaucomatous Monkeys; 4 HR after topical 35 μL drop) | % IOP Change (Glaucomatous Monkeys; 6 HR after topical 35 μL drop) | EC50 ([1]; read-out: m1 pEC50 (converted)) | EC50 ([4]; read-out: m4 pEC50 (converted)) | EC50 ([5]; read-out: m5 pEC50 (converted)) | patients with elevated liver transaminases (hepatotoxicity) [6] |
| --- | --- | --- | --- | --- | --- | --- | --- | --- | --- | --- | --- | --- | --- | --- | --- |
| CCCCC1CCN(CCCn2ncc3ccccc32)CC1 [Example 19, 1-(3-(4-n-Butylpiperidine)-1-yl-propyl)-4H-indazole] | 7.3 | 86% | no response (No response: Efficacy <25% maximum response of carbachol. This level of activity is not considered significantly different to no response.) | no response (No response: Efficacy <25% maximum response of carbachol. This level of activity is not considered significantly different to no response.) | 6.5 | 70% | no response (No response: Efficacy <25% maximum response of carbachol. This level of activity is not considered significantly different to no response.) | −9.3% | −21.3% | −25.9% | −29.2% |  |  |  |  |
| CCCCC1CCN(CCCc2nc3c(C)cccc3[nH]2)CC1 [Example 32, 4-Methyl-2-(3-(4-n-butylpiperidine)-1-yl-propyl)-1H-benzoimidazole] | 6.4 | 52% | no response (No response: Efficacy <25% maximum response of carbachol. This level of activity is not considered significantly different to no response.) | no response (No response: Efficacy <25% maximum response of carbachol. This level of activity is not considered significantly different to no response.) |  | no response (No response: Efficacy <25% maximum response of carbachol. This level of activity is not considered significantly different to no response.) | no response (No response: Efficacy <25% maximum response of carbachol. This level of activity is not considered significantly different to no response.) |  |  |  |  |  |  |  |  |
| CCCC1CCN(CCCn2ncc3ccccc32)CC1 [Example 41, 1-(3-(4-Propylpiperidine)-1-yl-propyl)-1H-indazole] |  | 81% | no response (No response: Efficacy <25% maximum response of carbachol. This level of activity is not considered significantly different to no response.) | no response (No response: Efficacy <25% maximum response of carbachol. This level of activity is not considered significantly different to no response.) |  | 69% | 31% |  |  |  |  | 126 nM | 631 nM | > 3160 nM |  |
| CCCCC1CCN(CCCn2nnc3ccccc32)CC1 [Example 61, 1-[3-(4-Butylpiperidin-1-yl)-propyl]-1H-benzotriazole] | 6.3 | 59% | no response (No response: Efficacy <25% maximum response of carbachol. This level of activity is not considered significantly different to no response.) | no response (No response: Efficacy <25% maximum response of carbachol. This level of activity is not considered significantly different to no response.) | 6.0 | 39% | no response (No response: Efficacy <25% maximum response of carbachol. This level of activity is not considered significantly different to no response.) |  |  |  |  |  |  |  |  |
| CCCCC1CCN(CCCc2n[nH]c3ccccc23)CC1.Cl [Example 89, 3-[3-(4-Butyl-piperidine-1-yl)-propyl]1-H-indazole, HCl] | 7.3 | 85% | no response (No response: Efficacy <25% maximum response of carbachol. This level of activity is not considered significantly different to no response.) | no response (No response: Efficacy <25% maximum response of carbachol. This level of activity is not considered significantly different to no response.) | 6.8 | 53% | no response (No response: Efficacy <25% maximum response of carbachol. This level of activity is not considered significantly different to no response.) |  |  |  |  |  |  |  |  |
| Nc1c2c(nc3ccccc13)CCCC2 [tacrine] |  |  |  |  |  |  |  |  |  |  |  |  |  |  | about 30% |
